Source: US5739278A, “Compositions for protein tyrosine phosphatases” (University of Washington, priority 1995, dated 1998)
Where a SMILES comes first, the peptide text is derived from it.

Key:
Assay in all cases: Phosphatase assay with ENDY(P)INASL as substrate
Type in all cases: biochemical
[1] = biological target: T1, TCΔC11.PTP (Homo sapiens, UniProt P17706)
T1 construct: both the wild type and truncated forms of the T-cell phosphatase; made in house; host or cells: Sf9 cells (baculovirus)
T1 sequence (P17706 1-317 limits assumed): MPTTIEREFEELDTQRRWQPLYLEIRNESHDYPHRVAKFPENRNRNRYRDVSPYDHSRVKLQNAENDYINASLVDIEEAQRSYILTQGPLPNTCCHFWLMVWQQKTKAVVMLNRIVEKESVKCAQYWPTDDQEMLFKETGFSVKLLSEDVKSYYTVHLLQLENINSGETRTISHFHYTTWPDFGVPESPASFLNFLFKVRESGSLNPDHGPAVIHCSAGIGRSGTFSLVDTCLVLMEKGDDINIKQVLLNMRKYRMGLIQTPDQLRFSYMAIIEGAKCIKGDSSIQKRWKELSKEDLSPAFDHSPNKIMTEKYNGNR
Experimental: (§1) The tyrosine phosphatases TC.PTP, TCΔC11.PTP, and RPTPα were purified from infected Sf9 cells as described recently (Zander et al., Biochemistry 30: 6964-6970, 1991; Daum et al., J. Biol. Chem. 266: 12211-12215, 1991). The 37 kDa form of PTP1B and CD45 were purified from placenta and spleen, respectively (according to Tonks et al., J. Biol. Chem. 263: 6722-6730, 1988; Tonks et al., Biochemistry 27: 8695-8701, 1988).
(§2) Phosphatase assays with ENDY(P)INASL were performed in buffer M6. Aliquots of 30 μl or 60 μl containing the phosphopeptide, the phosphatase (-beads) and effectors were incubated for 10 minutes at 30° C. The reaction was stopped by adding 200 μl of a suspension of 10% activated, acid-washed Norit A charcoal (v/v) in 0.9N HCl, 0.1M pyrophosphate and 2 mM NaH2 PO4 (according to Streuli et al., Proc. Natl. Acad. Sci. USA 86: 8698-8702, 1989). The mixture was cleared by 10-minute centrifugation and the radioactivity of 150 μl of the supernate was determined. Assays with MBP and RCML were performed as described in Tonks et al., J. Biol. Chem. 263: 6722-6730, 1988. Protein concentration was determined with BSA as standard (Bradford, Anal. Biochem. 72: 248-254, 1976).

[2] = biological target: T2, RPTPα (Homo sapiens, UniProt P18433)
T2 construct: made in house; host or cells: Sf9 cells (baculovirus)
Experimental: as §1, §2

[3] = biological target: T3, CD45 (Homo sapiens, UniProt P08575)
T3 construct: CD45 were purified from placenta and spleen, respectively; from tissue; host or cells: spleen
T3 sequence (P08575 26-1306): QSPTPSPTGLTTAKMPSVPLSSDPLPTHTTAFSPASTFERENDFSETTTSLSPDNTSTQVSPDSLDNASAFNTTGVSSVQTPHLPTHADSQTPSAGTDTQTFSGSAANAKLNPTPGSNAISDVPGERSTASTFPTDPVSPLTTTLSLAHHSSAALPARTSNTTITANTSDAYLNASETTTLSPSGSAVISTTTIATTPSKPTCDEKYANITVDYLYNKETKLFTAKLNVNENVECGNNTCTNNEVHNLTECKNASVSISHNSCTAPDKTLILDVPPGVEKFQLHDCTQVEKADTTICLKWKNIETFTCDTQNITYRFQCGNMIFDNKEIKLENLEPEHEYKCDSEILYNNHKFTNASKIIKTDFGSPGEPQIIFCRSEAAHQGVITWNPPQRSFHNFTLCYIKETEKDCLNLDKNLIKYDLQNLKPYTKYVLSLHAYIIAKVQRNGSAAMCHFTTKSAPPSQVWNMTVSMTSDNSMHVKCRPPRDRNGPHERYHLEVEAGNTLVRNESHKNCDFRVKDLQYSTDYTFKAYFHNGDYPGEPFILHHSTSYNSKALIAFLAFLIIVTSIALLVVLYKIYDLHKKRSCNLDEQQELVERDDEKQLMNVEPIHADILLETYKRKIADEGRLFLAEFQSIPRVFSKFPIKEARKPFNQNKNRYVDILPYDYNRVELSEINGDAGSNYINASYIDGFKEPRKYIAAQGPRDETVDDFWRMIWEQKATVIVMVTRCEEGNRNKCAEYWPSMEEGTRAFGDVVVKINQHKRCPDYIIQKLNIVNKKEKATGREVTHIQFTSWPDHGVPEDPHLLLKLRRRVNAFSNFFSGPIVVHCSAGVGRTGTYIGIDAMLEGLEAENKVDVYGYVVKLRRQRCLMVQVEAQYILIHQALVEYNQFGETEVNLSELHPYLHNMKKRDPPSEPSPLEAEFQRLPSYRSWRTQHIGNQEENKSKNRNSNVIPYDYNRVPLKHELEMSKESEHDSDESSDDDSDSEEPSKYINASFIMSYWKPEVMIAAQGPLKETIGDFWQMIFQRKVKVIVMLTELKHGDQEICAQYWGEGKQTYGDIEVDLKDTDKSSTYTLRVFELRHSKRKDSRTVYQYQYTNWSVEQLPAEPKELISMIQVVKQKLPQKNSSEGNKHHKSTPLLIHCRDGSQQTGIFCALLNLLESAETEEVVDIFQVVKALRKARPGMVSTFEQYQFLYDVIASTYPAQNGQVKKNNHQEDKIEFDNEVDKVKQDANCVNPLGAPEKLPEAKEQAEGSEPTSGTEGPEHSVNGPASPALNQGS
Experimental: as §1, §2

[4] = biological target: T4, TC.PTP (Homo sapiens, UniProt P17706); settings: TC.PTP
T4 construct: made in house; host or cells: Sf9 cells (baculovirus)
T4 sequence (P17706 1-415): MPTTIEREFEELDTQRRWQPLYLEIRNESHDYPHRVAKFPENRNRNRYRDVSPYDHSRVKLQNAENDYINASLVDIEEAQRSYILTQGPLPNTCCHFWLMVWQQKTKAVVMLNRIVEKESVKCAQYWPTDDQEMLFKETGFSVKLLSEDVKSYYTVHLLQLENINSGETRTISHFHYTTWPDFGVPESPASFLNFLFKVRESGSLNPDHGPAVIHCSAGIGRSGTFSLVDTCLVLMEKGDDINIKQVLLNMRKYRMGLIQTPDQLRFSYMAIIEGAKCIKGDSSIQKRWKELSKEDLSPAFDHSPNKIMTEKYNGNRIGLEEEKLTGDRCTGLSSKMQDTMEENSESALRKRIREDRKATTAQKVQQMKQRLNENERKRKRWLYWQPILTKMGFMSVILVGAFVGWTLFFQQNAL
Experimental: as §1, §2

[5] = biological target: T5, PTP1B (Homo sapiens, UniProt P18031)
T5 construct: The 37 kDa form of PTP1B; from tissue; host or cells: placenta
T5 sequence (P18031 1-321 limits assumed): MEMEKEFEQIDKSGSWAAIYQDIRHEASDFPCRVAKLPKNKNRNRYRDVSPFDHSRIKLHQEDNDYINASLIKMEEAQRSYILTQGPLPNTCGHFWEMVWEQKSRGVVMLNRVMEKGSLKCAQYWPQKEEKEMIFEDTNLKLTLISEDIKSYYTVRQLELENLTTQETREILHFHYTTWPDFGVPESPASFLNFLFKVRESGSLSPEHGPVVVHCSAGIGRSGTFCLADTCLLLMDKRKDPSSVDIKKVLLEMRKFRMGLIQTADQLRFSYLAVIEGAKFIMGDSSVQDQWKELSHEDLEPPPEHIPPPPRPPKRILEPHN
Experimental: as §1, §2

T2 sequence (P18433 20-802): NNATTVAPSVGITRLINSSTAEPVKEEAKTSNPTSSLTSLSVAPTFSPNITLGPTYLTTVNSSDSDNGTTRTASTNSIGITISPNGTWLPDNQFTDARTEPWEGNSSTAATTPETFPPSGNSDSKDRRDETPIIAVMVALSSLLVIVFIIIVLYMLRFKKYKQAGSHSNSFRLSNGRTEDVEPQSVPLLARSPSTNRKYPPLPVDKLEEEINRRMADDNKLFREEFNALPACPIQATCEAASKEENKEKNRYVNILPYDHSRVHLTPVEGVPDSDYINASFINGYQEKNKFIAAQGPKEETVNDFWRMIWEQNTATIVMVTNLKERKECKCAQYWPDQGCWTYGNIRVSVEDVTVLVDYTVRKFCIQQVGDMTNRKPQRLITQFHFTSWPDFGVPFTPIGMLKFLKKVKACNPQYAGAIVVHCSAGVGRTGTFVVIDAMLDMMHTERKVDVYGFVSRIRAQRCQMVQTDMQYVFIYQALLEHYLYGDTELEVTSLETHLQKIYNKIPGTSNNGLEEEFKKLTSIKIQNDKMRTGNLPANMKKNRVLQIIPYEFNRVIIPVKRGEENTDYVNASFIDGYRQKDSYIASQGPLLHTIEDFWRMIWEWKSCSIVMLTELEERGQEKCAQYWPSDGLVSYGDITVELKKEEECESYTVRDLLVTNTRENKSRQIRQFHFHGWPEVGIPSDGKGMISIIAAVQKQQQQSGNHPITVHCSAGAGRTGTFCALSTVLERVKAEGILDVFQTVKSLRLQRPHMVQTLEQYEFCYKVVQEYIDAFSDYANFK

| Phosphatase activity in percent of the value obtained in the absence of effectors ([1]; effector 1.0 mM) | Phosphatase activity in percent of the value obtained in the absence of effectors ([1]; effector 3.0 mM) | Phosphatase activity in percent of the value obtained in the absence of effectors ([1]; effector 5.0 mM) | Phosphatase activity in percent of the value obtained in the absence of effectors ([2]; effector 1.0 mM) | Phosphatase activity in percent of the value obtained in the absence of effectors ([2]; effector 3.0 mM) | Phosphatase activity in percent of the value obtained in the absence of effectors ([2]; effector 5.0 mM) | Phosphatase activity in percent of the value obtained in the absence of effectors ([3]; effector 1.0 mM) | Phosphatase activity in percent of the value obtained in the absence of effectors ([3]; effector 3.0 mM) | Phosphatase activity in percent of the value obtained in the absence of effectors ([3]; effector 5.0 mM) | Phosphatase activity in percent of the value obtained in the absence of effectors ([4]; effector 1.0 mM) | Phosphatase activity in percent of the value obtained in the absence of effectors ([4]; effector 3.0 mM) | Phosphatase activity in percent of the value obtained in the absence of effectors ([4]; effector 5.0 mM) | Phosphatase activity in percent of the value obtained in the absence of effectors ([5]; effector 1.0 mM) | Phosphatase activity in percent of the value obtained in the absence of effectors ([5]; effector 3.0 mM) | Phosphatase activity in percent of the value obtained in the absence of effectors ([5]; effector 5.0 mM) | Compound | also measured |
| --- | --- | --- | --- | --- | --- | --- | --- | --- | --- | --- | --- | --- | --- | --- | --- | --- |
| 75% | 60% | 58% | 90% | 72% | 59% | 80% | 62% | 72% | 72% | 57% | 60% | 81% | 73% | 71% | [Mg+2] [Mg^2+] |  |
| 34% | 22% | 15% | 60% | 38% | 21% | 78% | 56% | 44% | 49% | 30% | 21% | 26% | 23% | 20% | [Mn+2] [Mn^2+] |  |

The next lines start with the molecule.

| Compound | Phosphatase activity in percent of the value obtained in the absence of effectors ([1]; effector 1.0 mM) | Phosphatase activity in percent of the value obtained in the absence of effectors ([1]; effector 3.0 mM) | Phosphatase activity in percent of the value obtained in the absence of effectors ([1]; effector 5.0 mM) | Phosphatase activity in percent of the value obtained in the absence of effectors ([2]; effector 1.0 mM) | Phosphatase activity in percent of the value obtained in the absence of effectors ([2]; effector 3.0 mM) | Phosphatase activity in percent of the value obtained in the absence of effectors ([2]; effector 5.0 mM) | Phosphatase activity in percent of the value obtained in the absence of effectors ([3]; effector 1.0 mM) | Phosphatase activity in percent of the value obtained in the absence of effectors ([3]; effector 3.0 mM) | Phosphatase activity in percent of the value obtained in the absence of effectors ([3]; effector 5.0 mM) | Phosphatase activity in percent of the value obtained in the absence of effectors ([4]; effector 1.0 mM) | Phosphatase activity in percent of the value obtained in the absence of effectors ([4]; effector 3.0 mM) | Phosphatase activity in percent of the value obtained in the absence of effectors ([4]; effector 5.0 mM) | Phosphatase activity in percent of the value obtained in the absence of effectors ([5]; effector 1.0 mM) | Phosphatase activity in percent of the value obtained in the absence of effectors ([5]; effector 3.0 mM) | Phosphatase activity in percent of the value obtained in the absence of effectors ([5]; effector 5.0 mM) | also measured |
| --- | --- | --- | --- | --- | --- | --- | --- | --- | --- | --- | --- | --- | --- | --- | --- | --- |
| CC[C@H](C)[C@H](NC(=O)[C@H](Cc1ccc(O)cc1)NC(=O)[C@H](CC(=O)O)NC(=O)[C@H](CC(N)=O)NC(=O)[C@@H](N)CCC(=O)O)C(=O)N[C@@H](CC(N)=O)C(=O)N[C@@H](C)C(=O)N[C@@H](CO)C(=O)N[C@@H](CC(C)C)C(=O)O (H-ENDYINASL-OH) |  |  |  |  |  |  |  |  |  |  |  |  |  |  |  | Phosphatase activity in percent of the value obtained in the absence of effectors ([1]; effector 60 μM): 71%; Phosphatase activity in percent of the value obtained in the absence of effectors ([1]; effector 110 μM): 55%; Phosphatase activity in percent of the value obtained in the absence of effectors ([1]; effector 210 μM): 46%; Phosphatase activity in percent of the value obtained in the absence of effectors ([2]; effector 60 μM): 76%; Phosphatase activity in percent of the value obtained in the absence of effectors ([2]; effector 110 μM): 54%; Phosphatase activity in percent of the value obtained in the absence of effectors ([2]; effector 210 μM): 30%; Phosphatase activity in percent of the value obtained in the absence of effectors ([3]; effector 60 μM): 99%; Phosphatase activity in percent of the value obtained in the absence of effectors ([3]; effector 110 μM): 92%; Phosphatase activity in percent of the value obtained in the absence of effectors ([3]; effector 210 μM): 83%; Phosphatase activity in percent of the value obtained in the absence of effectors ([4]; effector 60 μM): 92%; Phosphatase activity in percent of the value obtained in the absence of effectors ([4]; effector 110 μM): 89%; Phosphatase activity in percent of the value obtained in the absence of effectors ([4]; effector 210 μM): 79%; Phosphatase activity in percent of the value obtained in the absence of effectors ([5]; effector 60 μM): 94%; Phosphatase activity in percent of the value obtained in the absence of effectors ([5]; effector 110 μM): 84%; Phosphatase activity in percent of the value obtained in the absence of effectors ([5]; effector 210 μM): 58% |
| O=C(O)CN(CCN(CC(=O)O)CC(=O)O)CC(=O)O [EDTA] | 142% | 109% | 93% | 115% | 97% | 86% | 96% | 78% | 76% | 119% | 104% | 80% | 139% | 125% | 110% |  |
| [O]=[V]([O-])([O-])[O-] [vanadate] |  |  |  |  |  |  |  |  |  |  |  |  |  |  |  | Phosphatase activity in percent of the value obtained in the absence of effectors ([2]; effector 1.0 μM): 62%; Phosphatase activity in percent of the value obtained in the absence of effectors ([2]; effector 10 μM): 4%; Phosphatase activity in percent of the value obtained in the absence of effectors ([2]; effector 100 μM): 0%; Phosphatase activity in percent of the value obtained in the absence of effectors ([3]; effector 1.0 μM): 66%; Phosphatase activity in percent of the value obtained in the absence of effectors ([3]; effector 10 μM): 17%; Phosphatase activity in percent of the value obtained in the absence of effectors ([3]; effector 100 μM): 4% |
